Here are results for two compounds from article PMC9582434, “Ryanodine receptor-active non-dioxin-like polychlorinated biphenyls cause neurobehavioral deficits in larval zebrafish” (Frontiers in Toxicology, 2022).

Data set [1] deals with RYR paralogs found in zebrafish skeletal muscle. Put plainly: [3H]ryanodine ligand binding assay, adult zebrafish tail muscle microsomes. Conditions: for EC2X: concentration causing two-fold induction in ligand binding vs DMSO control; for Max. response SEM (%): maximum [3H]Ry binding response compared to DMSO control, mean ± SEM; for EC50: relative EC50, concentration causing half-maximum response, PCB 0.1–50 μM; for RYR activity (in words): zebrafish muscle. Here is the method:
Sensitization of the zebrafish RYR by ortho-PCBs was measured using [^3H]ryanodine ([^3H]Ry) ligand binding assays as previously described ([Fritsch and Pessah, 2013]). Briefly, crude microsomal protein preparations were created from the tail (post dorsal fin) muscle (primarily white skeletal muscle) of six adult zebrafish (∼1 year old) that was homogenized in a buffer containing 320 mM sucrose, 5 mM HEPES, 1 mM PMSF, 10 mM NaF, 2 mM β-Glycerol, 5 mM Na4P2O7, 0.5 mM Na3VO4 and 2 μg/L leupeptin (pH 7.2). The homogenate was centrifuged at 5,000 × g (4°C) for 15 min. The pellet was re-homogenized in 5 ml homogenization buffer and centrifuged at 5,000 × g. Supernatants were combined for ultracentrifugation at 100,000 g (4°C for 1 h). The resultant pellet was re-suspended in a buffer of 320 mM sucrose and 5 mM HEPES (Sigma-Aldrich, St. Louis, MO, United States) at pH 7.2. Protein concentrations were determined in triplicate using a BCA Assay (Fisher Scientific, Waltham, MA, United States). [^3H]Ry ligand binding assays were conducted with 40 μg/ml of the crude protein homogenate in the presence of DMSO (0.5%) or 0.1–50 μM of individual PCB congeners in 0.5% DMSO. Tests were run using 5 nM [^3H]Ry (Perkin Elmer Waltham, MA, United States), 250 mM KCl, 20 mM HEPES, 15 mM NaCl, and 50 μM CaCl2 (pH 7.1) and incubated for 16 h at 25°C. Non-specific binding was determined with the addition of 10 µM ryanodine (Tocris Bioscience, Bristol, United Kingdom) and 200 μM EGTA (Sigma-Aldrich, St. Louis, MO, United States). Assays were terminated by rapid filtration through Whatman GF/B filter paper (Brandel, Gaithersburg, MD, United States) and washed with ice-cold buffer containing 140 mM KCl, 10 mM HEPES, and 0.1 mM CaCl2, pH 7.4. Bound radioligand was measured by liquid scintillation counting (Beckman Coulter, Indianapolis, IN, United States). PCB-induced [^3H]Ry binding was assessed in two different protein preparations, and each assay was run in triplicate. Individual PCB concentration-response curves were determined using non-linear regression (GraphPad Prism 6.0, GraphPad Software Inc., San Diego, CA, United States).

Data set [2] has as its system larval zebrafish. Put plainly: Larval photomotor behavior test (light/dark locomotor test). As to conditions: for Behavior score (total change from control): sum of absolute [1 − (AUC value/DMSO)] over all concentrations, epochs and 3, 4, 5 dpf. It is filed as in vivo. Here is the method:
At 4 hpf, embryos were treated with 50 µl of 41 mg/ml protease from Streptomyces griseus (P5147, Sigma-Aldrich, St. Louis, MO, United States) in 25 ml of FW for a maximum of 6 min to remove the chorion ([Truong et al., 2011]). At 5 hpf, embryos were placed in individual wells of 96-well plates filled with 100 µl of EM. At 6 hpf, embryos were exposed to a 2× concentration of the selected PCB congeners or controls that were diluted in 100 μl EM to produce a 1× concentration in a total of 200 µl solution. […] After exposure, plates were covered with Parafilm M (Bemis NA, Neenah, WI, United States) to reduce evaporation and placed in an incubator at 28.5°C with 14 h light (∼300 lux)/10 h dark cycles. Final DMSO concentrations were 0.2% (vol/vol) for all exposures. Fish were statically exposed until 5 dpf.
Larval locomotor tests were performed at 3, 4, and 5 dpf. Vehicle and PCB-exposed larvae in 96-well plates were placed in a DanioVision behavior system (Noldus Information Technology, Leesburg, VA, United States) and subjected to a 35 min light/dark locomotor test. System and plate temperature were maintained at 28.5 ± 0.5°C using a temperature control unit from Noldus. The testing paradigm consisted of a 10 min light period (∼1,900 lux) to allow for acclimation (5 min) and to record baseline swimming (5 min). This was followed by a 5 min dark period (∼0 lux) to stimulate increased swimming behavior and a 5 min light period (∼1,900 lux) to stimulate freezing behavior. The last 15 min consisted of a dark period (∼0 lux) to observe increased swimming behavior and acclimation to the dark conditions.
The distance traveled binned per minute by each larva during the 35-min observation test period was recorded via continuous tracing using a DanioVision system camera with an infrared filter to allow recording in both light and dark conditions. Movement was tracked using EthoVisionXT software (Noldus Information Technology) and exported to Excel and Prism 6.0 (GraphPad Software) for analysis and visualization. Dead and/or malformed larvae (as noted by observation under dissecting scope) were excluded from the behavior analysis.
The trapezoidal rule was used to compute the area under the curve (AUC) for each fish per day per lighting condition. The first 5 min of the 35-min observation period was removed to account for initial acclimation. Therefore, data were analyzed for the following time epochs: Light 1 (L1) = 6–10 min, Dark 1 (D1) = 11–15 min, Light 2 (L2) = 16–20 min, and Dark 2 (D2) = 21–35 min. Mixed effects regression models, including zebrafish-specific random effects, were used to assess differences between groups. DMSO groups from each spawn date (≥3 independent spawns) and plate were combined in the analysis. Separate models were fit for each congener. New variables were defined to capture differences in the AUC between Light 1 and Dark 1, Dark 1 and Light 2, and Light 2 and Dark 2, to measure change in distance traveled when transitioning from light to dark or dark to light. Contrasts were specified to compare these transitions and the AUC during each of the lighting conditions between the exposed groups and the DMSO control group. […] Due to some zeroes in the AUC, all values were shifted by 0.1 prior to taking the natural logarithm. Concentration (0.1, 0.3, 1, 3, 10 µM and DMSO), day (3, 4, 5 dpf), and the transition variables were all of interest in the models, including their interactions. Akaike information criterion was used for model selection and Wald tests for comparing groups. All analyses were conducted using SAS version 9.4.
The neurotoxic potential of the congeners tested in this study were ranked based on the three endpoints measured in this study: RYR binding, behavior, and body burden. Congeners were ranked relative to each other for each individual endpoint from 1 (highest) to 6 (lowest), and then the three scores for each congener averaged to obtain an overall relative ranking for each congener. […]

With `Clc1cc(Cl)c(-c2ccc(Cl)c(Cl)c2Cl)cc1Cl` [PCB 138], the EC2X in data set [1] worked out at 4.18. Further, the “Max. response SEM (%)” value in data set [1] is on record as 388.20 ± 74.93%. Moreover, in data set [1], it took 9.6 µM to reach a half-maximal effect (EC50). The “RYR activity (in words)” value in data set [1] was “moderate”. For the same compound, the “increase of L1-D1 transition compared to the control group” value turned out to be 0.821 in data set [2] (0.3 µM, 4 dpf) and 0.68 in data set [2] (1 µM, 4 dpf). Also, the “distance moved relative to vehicle control” value in data set [2] (1 µM, 3 dpf, D1) is given as “moved more”; in data set [2] (3 µM, 3 dpf, D1), “moved more”; in data set [2] (3 µM, 3 dpf, D2), “moved more”; in data set [2] (10 µM, 3 dpf, D1), “moved more”; in data set [2] (10 µM, 3 dpf, D2) it was “moved more”; in data set [2] (10 µM, 5 dpf, D2), “moved less”. Further, the “decrease of L1-D1 transition compared to controls” value in data set [2] (3 µM, 5 dpf) came out at 0.7. Further, the “decrease of L1-D1 transition compared to the control group” value in data set [2] (10 µM, 4 dpf, not quite statistically significant (p = 0.06)) stood at 0.6. Moreover, the “Behavior score (total change from control)” value in data set [2] was 29.32.
`Clc1cc(Cl)c(-c2cc(Cl)c(Cl)cc2Cl)cc1Cl` [PCB 153, 2,2',4,4',5,5'-Hexachlorobiphenyl] yielded an EC2X in data set [1] of 3.88. In addition, in data set [1], the “Max. response SEM (%)” value is 320.40 ± 92.18%. In addition, the EC50 (commonly the concentration at which the effect is half-maximal) in data set [1] came to 4.34 µM. Besides, the “RYR activity (in words)” value in data set [1] is “moderate”. Further, the “L1-D1 transition relative to vehicle control” value was “attenuating” in data set [2] (0.3 µM, 4 dpf); “larger” in data set [2] (1 µM, 3 dpf); “larger” in data set [2] (10 µM, 3 dpf); “attenuated” in data set [2] (10 µM, 5 dpf). Further, the “distance moved relative to vehicle control” value is “moved more” in data set [2] (0.3 µM, 4 dpf, L1); “moved more” in data set [2] (1 µM, 3 dpf, D1); “moved more” in data set [2] (1 µM, 3 dpf, D2); “moved more” in data set [2] (1 µM, 3 dpf, L2); “moved more” in data set [2] (10 µM, 3 dpf, D1); “moved more” in data set [2] (10 µM, 3 dpf, D2). Further, the “distance moved relative to vehicle control” value in data set [2] (10 µM, 3 dpf, L2) was “moved more”; in data set [2] (10 µM, 4 dpf, L2), “moved more”; in data set [2] (10 µM, 5 dpf, L1) it was “moved more”; in data set [2] (10 µM, 5 dpf, L2), “more movement”. Further, the “Behavior score (total change from control)” value in data set [2] came to 23.05.
